Source: PubChem BioAssay (NCI)
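The concentration for 50% growth inhibition is given as GI50. At the TGI there is no net growth.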

Experiments:
Assay in all cases: inhibition of tumour cell growth, NCI panel, 384-well format; in the data active means GI50 below about 0.43 µM; inactive means the rest
[1] = system: HCC-2998 colon
[2] = system: SF-539 CNS
[3] = system: SK-MEL-28 melanoma
[4] = system: UACC-257 melanoma
[5] = system: LOX IMVI melanoma
[6] = system: MDA-MB-468 breast
[7] = system: OVCAR-8 ovarian
[8] = system: SR leukemia
[9] = system: CCRF-CEM leukemia
[10] = system: NCI-H226 lung
[11] = system: NCI-H322M lung
[12] = system: NCI-H522 lung
[13] = system: RXF 393 renal
[14] = system: OVCAR-3 ovarian
[15] = system: BT-549 breast
[16] = system: SNB-19 CNS
[17] = system: RPMI-8226 leukemia
[18] = system: SN12C renal
[19] = system: OVCAR-5 ovarian
[20] = system: OVCAR-4 ovarian
[21] = system: TK-10 renal
[22] = system: MOLT-4 leukemia
[23] = system: A549 NSCLC
[24] = system: NCI-H23 lung
[25] = system: HOP-62 NSCLC
[26] = system: SNB-75 CNS
[27] = system: KM12 colon
[28] = system: HL-60(TB) leukemia
[29] = system: SK-MEL-5 melanoma
[30] = system: SW-620 colon
[31] = system: CAKI-1 renal
[32] = system: EKVX NSCLC
[33] = system: MALME-3M melanoma
[34] = system: NCI/ADR-RES ovarian
[35] = system: HS 578T breast
[36] = system: COLO 205 colon
[37] = system: M14 melanoma
[38] = system: UACC-62 melanoma
[39] = system: SF-268 CNS
[40] = system: UO-31 renal
[41] = system: MDA-MB-435 melanoma
[42] = system: NCI-H460 NSCLC
[43] = system: DU-145 prostate
[44] = system: IGROV1 ovarian
[45] = system: T-47D breast
[46] = system: A498 renal
[47] = system: PC-3 prostate
[48] = system: 786-0 renal
[49] = system: MCF7 breast
[50] = system: U251 glioblastoma
[51] = system: HT29 colon
[52] = system: HCT-116 colon
[53] = system: SK-OV-3 ovarian
[54] = system: HCT-15 colon
[55] = system: K-562 leukemia
[56] = system: SK-MEL-2 melanoma
[57] = system: SF-295 CNS
[58] = system: HOP-92 NSCLC
[59] = system: ACHN renal
[60] = system: MDA-MB-231 breast

CN1CC[C@@H](c2c(O)cc(O)c3c(=O)cc(-c4ccccc4Cl)oc23)[C@@H](O)C1
0.0222 µM: TGI [8]
0.0911 µM: TGI [18]
0.0386 µM: TGI [13] | TGI [39]
0.255 µM: TGI [41]
active: GI50 [1] 0.0424 µM | GI50 [2] 0.0247 µM | GI50 [3] 0.0285 µM | GI50 [4] 0.0515 µM | GI50 [5] 0.0208 µM | GI50 [6] 0.0283 µM | GI50 [7] 0.025 µM | GI50 [8] 0.0102 µM | GI50 [9] 0.0194 µM | GI50 [10] 0.0187 µM | GI50 [11] 0.0337 µM | GI50 [12] 0.109 µM | GI50 [13] 0.0191 µM | GI50 [14] 0.0331 µM | GI50 [15] 0.0256 µM | GI50 [16] 0.0503 µM | GI50 [17] 0.0227 µM | GI50 [18] 0.028 µM | GI50 [19] 0.0242 µM | GI50 [20] 0.0596 µM | GI50 [21] 0.0357 µM | GI50 [22] 0.0237 µM | GI50 [23] 0.0349 µM | GI50 [24] 0.0301 µM | GI50 [25] 0.0202 µM | GI50 [26] 0.113 µM | GI50 [27] 0.0279 µM | GI50 [28] 0.0133 µM | GI50 [29] 0.0298 µM | GI50 [30] 0.0348 µM | GI50 [31] 0.0351 µM | GI50 [32] 0.0599 µM | GI50 [33] 0.0425 µM | GI50 [34] 0.0896 µM | GI50 [35] 0.0228 µM | GI50 [36] 0.0313 µM | GI50 [37] 0.0325 µM | GI50 [38] 0.0178 µM | GI50 [39] 0.0178 µM | GI50 [40] 0.036 µM | GI50 [41] 0.103 µM | GI50 [42] 0.0215 µM
0.0513 µM: TGI [17]
0.0632 µM: TGI [5]
0.299 µM: TGI [32]
0.078 µM: TGI [7]
0.0568 µM: TGI [29]
0.173 µM: TGI [4]
0.0639 µM: TGI [10]
0.0824 µM: TGI [36]
0.319 µM: TGI [34]
0.0708 µM: TGI [19]
0.0361 µM: TGI [9]
0.151 µM: TGI [1]
0.072 µM: TGI [2]
0.116 µM: TGI [37]
0.095 µM: TGI [14]
0.0407 µM: TGI [38]
0.252 µM: TGI [12]
0.045 µM: TGI [22]
0.0479 µM: TGI [35]
0.0908 µM: TGI [15]
0.282 µM: TGI [20]
0.132 µM: TGI [3]
0.0496 µM: TGI [42]
0.244 µM: TGI [26] | TGI [27]
0.126 µM: TGI [11]
> 100 µM: TGI [16] | TGI [21] | TGI [23] | TGI [31] | TGI [40]
0.0874 µM: TGI [6]
0.0456 µM: TGI [25]
0.204 µM: TGI [30]
0.112 µM: TGI [24]
0.141 µM: TGI [33]
0.0263 µM: TGI [28]

Cc1cc(-c2ncc(CC(=O)Nc3ccc(-c4cnccn4)cn3)cc2C)ccn1
inactive: GI50 [43] > 100 µM | GI50 [44] 56.3 µM | GI50 [45] 9.51 µM | GI50 [46] 68.8 µM | GI50 [1] > 88.8 µM | GI50 [2] > 57.7 µM | GI50 [3] > 100 µM | GI50 [4] 27.8 µM | GI50 [5] 28.4 µM | GI50 [6] 3.43 µM | GI50 [7] 30.3 µM | GI50 [47] 51.1 µM | GI50 [8] 3.81 µM | GI50 [9] 12.2 µM | GI50 [10] 61.6 µM | GI50 [11] 43 µM | GI50 [12] 31.5 µM | GI50 [13] 21.3 µM | GI50 [14] > 86.3 µM | GI50 [15] 32.5 µM | GI50 [16] 64 µM | GI50 [17] 13.8 µM | GI50 [18] 39.2 µM | GI50 [48] 59.5 µM | GI50 [19] > 100 µM | GI50 [20] 25.5 µM | GI50 [21] 65.7 µM | GI50 [49] 27.3 µM | GI50 [50] 48.6 µM | GI50 [22] 12.9 µM | GI50 [51] 74.5 µM | GI50 [23] > 70.5 µM | GI50 [52] 29 µM | GI50 [24] 20.5 µM | GI50 [53] > 66 µM | GI50 [25] 39.7 µM | GI50 [54] 57.1 µM | GI50 [55] 10.4 µM | GI50 [26] > 58.8 µM | GI50 [27] > 82.9 µM | GI50 [28] 6.52 µM | GI50 [29] 11.6 µM | GI50 [30] 88.6 µM | GI50 [31] 49.3 µM | GI50 [56] 42.6 µM | GI50 [57] 49.3 µM | GI50 [58] > 100 µM | GI50 [32] 21.8 µM | GI50 [33] > 100 µM | GI50 [34] 14.4 µM | GI50 [59] 64.4 µM | GI50 [35] > 100 µM | GI50 [36] > 93.6 µM | GI50 [37] > 100 µM | GI50 [60] > 100 µM | GI50 [38] 56.1 µM | GI50 [39] > 100 µM | GI50 [41] 38.6 µM | GI50 [42] 28.6 µM
27.9 µM: TGI [8]
33.1 µM: TGI [6]
27.2 µM: TGI [29]
26.2 µM: TGI [22]
49 µM: TGI [9]
> 52.8 µM: TGI [45]
47.3 µM: TGI [34]
24.1 µM: TGI [28]
> 100 µM: TGI [43] | TGI [44] | TGI [46] | TGI [1] | TGI [2] | TGI [3] | TGI [4] | TGI [5] | TGI [7] | TGI [47] | TGI [10] | TGI [11] | TGI [12] | TGI [13] | TGI [14] | TGI [15] | TGI [16] | TGI [18] | TGI [48] | TGI [19] | TGI [20] | TGI [21] | TGI [49] | TGI [50] | TGI [51] | TGI [23] | TGI [52] | TGI [24] | TGI [53] | TGI [25] | TGI [54] | TGI [55] | TGI [26] | TGI [27] | TGI [30] | TGI [31] | TGI [56] | TGI [57] | TGI [58] | TGI [32] | TGI [33] | TGI [59] | TGI [35] | TGI [36] | TGI [37] | TGI [60] | TGI [38] | TGI [39] | TGI [41] | TGI [42]
34.7 µM: TGI [17]
